Consider 4 molecules from patent US5817490A, “Enzymatic process for the manufacture of ascorbic acid 2-keto-L-gulonic acid and esters of 2-keto-L-gulonic acid” (Eastman Chemical Company, priority 1997, dated 1998).

Like-named read-outs stand apart in the source and are kept apart here.

The format of series [1] is physicochemical. The method, then:
HPLC sample standards were prepared by dissolving KLG, MeKLG, ascorbic acid (ASA), and butyl-KLG to the appropriate concentration in water. Samples of these standards were placed in filled and sealed vials, stored at room temperature, and analyzed periodically. The HPLC was calibrated on the area response for standards that were injected onto the HPLC as soon as possible after the preparation of the standards.

Series [2] in a line: enzyme screen for hydrolysis/methanolysis of butyl-KLG (HPLC of products and remaining substrate). The format is biochemical. Also noted: KLG formed / MeKLG formed / ASA formed / BuKLG (remaining substrate): unit: ppm. Particulars: 19 Hours. The method, then: Initial enzyme screens were carried out as follows. Enzyme (typically 10 mg), aqueous buffer (typically 860 microliters (ul) or 550 ul), aqueous 0.2M CaCl2 (10 ul), methanol (typically 90 ul or 400 ul), and an aqueous solution of substrate (typically 90 ul of butyl-KLG at a typical concentration of 110,000 ppm) were added to a 2 ml polypropylene centrifuge tube. The resulting solution was vortexed briefly and placed on a shaker bath at 300 rpm at 38° C. (typically for 18 hours or more). After incubation, samples were centrifuged at 14,000 G's (14,000 times gravity) for 20 minutes to remove enzyme, sampled (300 ul), and diluted to one milliliter with distilled water. If not analyzed by HPLC within the day, samples were frozen prior to analysis.
The data were reported in terms of parts per million of KLG, MeKLG, ascorbic acid (ASA) and butyl-KLG. […] Samples labeled as "no enzyme" were controls within a given run. The controls contained substrate but no enzyme and thus represented experimental and HPLC background data.

[3] abbreviates: Table 5: 38° C., 38% Methanol-Water, 0.1 M MES Buffer.
The mark [4] stands for this setting: Table 6: 38°, 8.6% Methanol-Water, 0.1 M MES.

Regarding `O=C(O)C(=O)[C@@H](O)[C@H](O)[C@@H](O)CO` [KLG, 2-keto-L-gulonic acid], the “Amount Found” value in series [1] (50 ppm standard, 0 minutes) was 51 ppm; in series [1] (50 ppm standard, 400 minutes), 39.9 ppm; in series [1] (50 ppm standard, 715 minutes), 52 ppm; in series [1] (100 ppm standard, 0 minutes) it was 102 ppm; in series [1] (100 ppm standard, 400 minutes), 94.3 ppm; in series [1] (100 ppm standard, 715 minutes) it was 81.8 ppm. Also, the “Amount Found” value in series [1] (500 ppm standard, 0 minutes) was found to be 510 ppm; in series [1] (500 ppm standard, 400 minutes), 479 ppm; in series [1] (500 ppm standard, 715 minutes) it was 493 ppm.

As for `O=C1O[C@H]([C@@H](O)CO)C(O)=C1O` [ASA, ascorbic acid], the “Amount Found” value in series [1] (50 ppm standard, 0 minutes) is recorded as 53.4 ppm; in series [1] (50 ppm standard, 400 minutes) it was 28.3 ppm; in series [1] (50 ppm standard, 715 minutes), 0 ppm; in series [1] (100 ppm standard, 0 minutes), 107 ppm; in series [1] (100 ppm standard, 400 minutes), 96.6 ppm; in series [1] (100 ppm standard, 715 minutes), 57.2 ppm. The “Amount Found” value in series [1] (500 ppm standard, 0 minutes) was 534 ppm; in series [1] (500 ppm standard, 400 minutes), 487 ppm; in series [1] (500 ppm standard, 715 minutes), 473 ppm.

As for `COC(=O)C(=O)[C@@H](O)[C@H](O)[C@@H](O)CO` [MeKLG, methyl-2-keto-L-gulonate], the “Amount Found” value in series [1] (50 ppm standard, 0 minutes) is given as 51.4 ppm; in series [1] (50 ppm standard, 400 minutes), 47.7 ppm; in series [1] (50 ppm standard, 715 minutes), 43 ppm; in series [1] (100 ppm standard, 0 minutes), 103 ppm; in series [1] (100 ppm standard, 400 minutes), 106.8 ppm; in series [1] (100 ppm standard, 715 minutes), 90.2 ppm. Moreover, the “Amount Found” value in series [1] (500 ppm standard, 0 minutes) is given as 514 ppm; in series [1] (500 ppm standard, 400 minutes), 496 ppm; in series [1] (500 ppm standard, 715 minutes), 495 ppm.

B1: Hog Pancreatic Lipase: Hog Pancreatic Lipase, Fluka (protein, UniProt P00591 1-450, looked up)
Pancreatic triacylglycerol …: SEVCFPRLGCFSDDAPWAGIVQRPLKILPWSPKDVDTRFLLYTNQNQNNYQELVADPSTITNSNFRMDRKTRFIIHGFIDKGEEDWLSNICKNLFKVESVNCICVDWKGGSRTGYTQASQNIRIVGAEVAYFVEVLKSSLGYSPSNVHVIGHSLGSHAAGEAGRRTNGTIERITGLDPAEPCFQGTPELVRLDPSDAKFVDVIHTDAAPIIPNLGFGMSQTVGHLDFFPNGGKQMPGCQKNILSQIVDIDGIWEGTRDFVACNHLRSYKYYADSILNPDGFAGFPCDSYNVFTANKCFPCPSEGCPQMGHYADRFPGKTNGVSQVFYLNTGDASNFARWRYKVSVTLSGKKVTGHILVSLFGNEGNSRQYEIYKGTLQPDNTHSDEFDSDVEVGDLQKVKFIWYNNNVINPTLPRVGASKITVERNDGKVYDFCSQETVREEVLLTLNPC
On to B1, for which, in series [2] (setting [3]), the ASA formed was determined as 130 ppm, the “BuKLG (remaining substrate)” value is on record as 11114 ppm, the KLG formed was determined as 58 ppm and the MeKLG formed amounted to 529 ppm. Also, in series [2] (setting [4]), the ASA formed is recorded as 158 ppm, the “BuKLG (remaining substrate)” value is 5284 ppm, the KLG formed was 890 ppm and the MeKLG formed was found to be 791 ppm.
